ChEMBL document CHEMBL5214884, “Recent research progress of Uncaria spp. based on alkaloids: phytochemistry, pharmacology and structural chemistry” (Eur J Med Chem, 2021)

What was measured:
[1] = Inhibition of alpha glucosidase (unknown origin) using p-nitrophenyl-a-D-glucopyranoside as substrate incubated for 20 mins by UV based microplate reading method; design: species or system Homo sapiens
[2] = Inhibition of human carboxylesterase using 4-benzoyl-N-butyl-1,8-naphthalimide as substrate by fluorescence based assay
[3] = Inhibition of alpha glucosidase (unknown origin) using p-nitrophenyl alpha-D-glucoside as substrate preincubated for 60 mins followed by substrate addition measured after 30 mins by spectrophotometric analysis; design: species or system Homo sapiens
[4] = Inhibition of LPS-induced NO release in mouse N9 microglial cells measured after 48 hrs by Griess reaction assay; format: functional, cell-based; settings: N9, 48 h
[5] = test system: RAW264.7; test: Inhibition of LPS-induced NO release in mouse RAW264.7 cells preincubated for 2 hrs followed by LPS addition measured after 24 hrs; format: functional, cell-based
[6] = target: T1, Melatonin receptor type 1A (Homo sapiens, UniProt P48039); test: Agonist activity at human MT1R stably expressed in HEK293 cells by FlexStation3 Bench-top MultiMode Microplate Reader; format: functional, cell-based
[7] = target: T2, Melatonin receptor type 1B (Homo sapiens, UniProt P49286); test: Agonist activity at human MT2R stably expressed in HEK293 cells by FlexStation3 Bench-top MultiMode Microplate Reader; format: functional, cell-based
T2 sequence (P49286 whole entry): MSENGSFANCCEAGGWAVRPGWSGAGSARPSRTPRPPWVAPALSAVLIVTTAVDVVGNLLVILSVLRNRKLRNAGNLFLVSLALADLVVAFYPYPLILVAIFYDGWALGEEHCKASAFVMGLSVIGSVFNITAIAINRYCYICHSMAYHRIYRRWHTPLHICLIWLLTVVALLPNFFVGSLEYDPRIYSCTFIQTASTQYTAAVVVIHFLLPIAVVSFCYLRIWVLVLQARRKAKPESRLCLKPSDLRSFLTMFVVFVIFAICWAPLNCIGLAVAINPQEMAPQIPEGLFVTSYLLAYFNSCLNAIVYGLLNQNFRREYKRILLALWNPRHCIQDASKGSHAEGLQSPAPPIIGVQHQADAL

[8] = test system: Rattus norvegicus; test: Hypotensive effect against Phe-induced contraction in rat mesentric arteries assessed as relaxation effect […]; format: functional
[9] = target: T1, Melatonin receptor type 1A; test: Agonist activity at human MT1R stably expressed in HEK293 cells at 1 mM by FlexStation3 Bench-top MultiMode Microplate Reader relative to control; format: functional, cell-based; settings: filed as agonist
[10] = target: T3, Melatonin receptor type 1B (Homo sapiens) (UniProt P49286); test: Agonist activity at human MT2R stably expressed in HEK293 cells at 1 mM by FlexStation3 Bench-top MultiMode Microplate Reader relative to control; format: functional, cell-based; settings: filed as agonist
T3 sequence (whole entry): T2 sequence (P49286 whole entry)

[11] = species on record: Mus musculus; test: Antiinflammatory activity against Balb/c mouse serum assessed as inhibition of IL-1beta release measured after 2 hrs by cytokine Elisa multiplex Q-plex system method relative to control; format: functional; design: scale not given: the % may be the effect or the level left
[12] = species on record: Mus musculus; test: Antiinflammatory activity against Balb/c mouse serum assessed as inhibition of IL-1alpha release measured after 2 hrs by cytokine Elisa multiplex Q-plex system method relative to control; format: functional; design: scale not given: the % may be the effect or the level left
[13] = species on record: Mus musculus; test: Antiinflammatory activity against Balb/c mouse serum assessed as inhibition of TNF-alpha release measured after 2 hrs by cytokine Elisa multiplex Q-plex system method relative to control; format: functional; design: scale not given: the % may be the effect or the level left
[14] = species on record: Mus musculus; test: Antiinflammatory activity against Balb/c mouse serum assessed as reduction of IL-4 release measured after 2 hrs by cytokine Elisa multiplex Q-plex system method relative to control; format: functional; design: scale not given: the % may be the effect or the level left
[15] = species on record: Mus musculus; test: Antiinflammatory activity against Balb/c mouse serum assessed as inhibition of IL-17 release measured after 2 hrs by cytokine Elisa multiplex Q-plex system method relative to control; format: functional; design: scale not given: the % may be the effect or the level left
[16] = test system: PC-12; test: Neuroprotective activity against mNGF-differentiated rat PC-12 cells assessed as inhibition of caspase 3; format: functional, cell-based
[17] = test system: PC-12; test: Neuroprotective activity against mNGF-differentiated rat PC-12 cells assessed as inhibition of caspase 9; format: functional, cell-based
[18] = target: T4, Acetylcholinesterase (Homo sapiens, UniProt P22303); test: Inhibition of AChE (unknown origin) incubated for 20 mins by Ellman's method
[19] = target: T4, Acetylcholinesterase; test: Inhibition of AChE (unknown origin) using acetylcholine as substrate by BioTek Synergy HT microplate reader method

T1 sequence (P48039 whole entry): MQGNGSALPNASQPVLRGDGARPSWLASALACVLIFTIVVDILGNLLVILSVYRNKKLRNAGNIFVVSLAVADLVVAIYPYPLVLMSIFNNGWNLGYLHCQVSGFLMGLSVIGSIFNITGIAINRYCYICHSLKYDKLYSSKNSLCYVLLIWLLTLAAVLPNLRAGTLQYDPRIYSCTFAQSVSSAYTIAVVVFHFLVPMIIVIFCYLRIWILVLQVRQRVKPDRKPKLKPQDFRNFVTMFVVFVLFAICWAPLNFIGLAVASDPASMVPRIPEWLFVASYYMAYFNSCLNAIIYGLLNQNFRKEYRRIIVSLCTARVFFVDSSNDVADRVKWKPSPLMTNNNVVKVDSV
T4 sequence (P22303 whole entry): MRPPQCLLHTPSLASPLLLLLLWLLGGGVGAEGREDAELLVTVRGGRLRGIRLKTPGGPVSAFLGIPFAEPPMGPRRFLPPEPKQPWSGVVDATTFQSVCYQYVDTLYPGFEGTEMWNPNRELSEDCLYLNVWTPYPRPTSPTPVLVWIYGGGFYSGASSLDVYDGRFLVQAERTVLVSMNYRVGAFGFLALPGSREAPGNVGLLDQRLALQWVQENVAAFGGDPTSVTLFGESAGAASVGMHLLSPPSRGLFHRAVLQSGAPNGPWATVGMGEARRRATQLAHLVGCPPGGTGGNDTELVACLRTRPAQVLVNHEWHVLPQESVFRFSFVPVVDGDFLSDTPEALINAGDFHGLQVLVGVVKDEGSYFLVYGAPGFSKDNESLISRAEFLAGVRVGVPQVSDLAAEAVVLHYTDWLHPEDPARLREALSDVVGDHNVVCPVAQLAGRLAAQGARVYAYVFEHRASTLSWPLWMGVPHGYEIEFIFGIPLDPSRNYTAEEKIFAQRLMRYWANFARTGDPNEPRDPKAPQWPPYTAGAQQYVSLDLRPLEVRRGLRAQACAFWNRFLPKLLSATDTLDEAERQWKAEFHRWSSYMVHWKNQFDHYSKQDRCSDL

`O=C1CC[C@H](Cc2ccc(O)c(O)c2)O1` showed an IC50 [1] of 27 µM.
`CO[C@H]1C=C2[C@@H]3C[C@H](C)CC[C@]3(C(=O)O)CC[C@@]2(C)[C@]2(C)CC[C@H]3C(C)(C)[C@@H](O)CC[C@]3(C)[C@@H]12` showed an IC50 [2] of 4.01 µM.
`C[C@H]1[C@H](C)CC[C@]2(C(=O)O)CC[C@]3(C)C(=CC[C@@H]4[C@@]5(C)CC[C@H](O)C(C)(C)[C@@H]5CC[C@]43C)[C@H]12` [URSOLIC ACID] gave an IC50 [2] of 4.01 µM and an IC50 [3] of 16 µM.
In the case of `Oc1cc(O)c2c(c1)O[C@H](c1ccc(O)c(O)c1)[C@@H](O)[C@@H]2c1c(O)cc(O)c2c1O[C@H](c1ccc(O)c(O)c1)[C@@H](O)C2`, the IC50 [1] is reported as 17.3 µM.
Molecule `C=C[C@@H]1C(C[C@@H]2NCCc3c2[nH]c2ccccc32)C(C(=O)OC)=CO[C@H]1O[C@@H]1O[C@H](CO)[C@@H](O)[C@H](O)[C@H]1O` (stereo partly specified) has an IC50 [4] of 8.3 µM.
With `C[C@H]1[C@H](C)CC[C@]2(C(=O)O)CC[C@]3(C(=O)/C=C/c4ccc(O)cc4)C(=CC[C@@H]4[C@@]5(C)CC[C@H](O)C(C)(C)[C@@H]5CC[C@]43C)[C@H]12` the IC50 [5] was 7.01 µM.
`COCC1=C(C)[C@H]2C3=CC[C@@H]4[C@@]5(C)CC[C@H](O)C(C)(C)[C@@H]5C(=O)C[C@@]4(C)[C@]3(C)CC[C@@]2(C(=O)O)CC1` gave an IC50 [3] of 49 µM.
`Oc1cc(O)c2c(c1)O[C@H](c1ccc(O)c(O)c1)[C@@H](O)C2` [CIANIDANOL] showed an EC50 [6] of 25.8 µM and an EC50 [7] of 47.3 µM.
`C=C1CC[C@]2(C(=O)O)CC[C@]3(C)C(=CC[C@@H]4[C@@]5(C)CC[C@H](O)C(C)(C)[C@@H]5[C@H](O)C[C@]43C)[C@@H]2[C@]1(C)O` showed an IC50 [5] of 1.48 µM.
Work on `CC1(C)CC[C@]2(C(=O)O)CC[C@]3(C)C(=CC[C@@H]4[C@@]5(C)CC[C@H](O)C(C)(C)[C@@H]5CC[C@]43C)[C@@H]2C1` [OLEANOLIC_ACID] yielded an IC50 [2] of 4.01 µM.
`CC[C@H]1CN2CCc3c([nH]c4ccccc34)[C@H]2C[C@H]1/C(=C\OC)C(=O)OC` gave an IC50 [8] of 0.18 µM.
`C=C[C@H]1[C@H](O[C@@H]2O[C@H](CO)[C@@H](O)[C@H](O)[C@@H]2O[C@@H]2O[C@H](CO[C@@H]3O[C@H](CO)[C@@H](O)[C@H](O)[C@H]3O)[C@@H](O)[C@H](O)[C@H]2O)OC=C2C(=O)N3CCc4c([nH]c5cc(O)ccc45)[C@H]3C[C@H]21` showed an Activity [9] of 79.6% and an Activity [10] of 46.3%.
Work on `COC(=O)C1=CO[C@@H](C)[C@H]2CN3CC[C@]4(C(=O)Nc5ccccc54)[C@@H]3CC12` (stereo partly specified) yielded an Activity [11] of 50%, an Activity [12] of 50% and an Activity [13] of 50%. It also gave an Activity [14] of 40% and an Activity [15] of 50%.
In the case of `Cc1cc2c(cc1O)OC1(CC1)C(O)C2` (stereo unspecified), the IC50 [1] is reported as 15.5 µM.
In the case of `C=C[C@H]1[C@H](O[C@@H]2O[C@H](CO)[C@@H](O)[C@H](O)[C@H]2O)OC=C(C(=O)OC)[C@H]1C[C@@H]1N[C@H](C(=O)O)Cc2c1[nH]c1ccccc21`, the IC50 [16] is reported as 25.6 µM and the IC50 [17] is reported as 24.5 µM.
`C[C@H]1[C@H](C)CC[C@]2(C(=O)O)CC[C@]3(C)C(=CC[C@@H]4[C@@]5(C)CC[C@H](O)C(C)(C)[C@@H]5[C@H](O)C[C@]43C)[C@H]12` showed an IC50 [2] of 4.01 µM.
`C=C[C@H]1COC(=O)C2=CN3CCc4c([nH]c5cccc(O[C@@H]6O[C@H](CO)[C@@H](O)[C@H](O)[C@H]6O)c45)[C@@H]3C[C@H]21` gave an IC50 [18] of 21.1 µM.
`C/C=C1\CN2CCc3c([nH]c4ccccc34)[C@@H]2C[C@@H]1/C(=C\OC)C(=O)OC` gave an IC50 [19] of 63.9 µM.
